# PMC7465886, “4-(N-Alkyl- and -Acyl-amino)-1,2,4-triazole-3-thione Analogs as Metallo-β-Lactamase Inhibitors: Impact of 4-Linker on Potency and Spectrum of Inhibition” (Biomolecules, 2020)
# Assays:
# Type in all cases: biochemical
# CphA = target: T1, CphA (Aeromonas hydrophila, UniProt P26918); assay: MBL inhibition, CphA (imipenem hydrolysis); conditions: read-out: Percentage of Inhibition at 100 μM Inhibitor, CphA
# T1 construct: made in house
# Method: Compounds were prepared as 10 mM solutions in DMSO before dilution with appropriate buffers. Buffers were 25 mM Hepes pH 7.5 for CphA or 25 mM Hepes pH 7.5, 50 µM ZnCl2 for L1. The rates in the absence of inhibitor were not modified by addition of 1% DMSO. CphA and L1 enzymes, purified as previously described, were used at concentrations between 0.2 and 0.8 nM, respectively. The enzyme and the inhibitor (100 µM) were pre-incubated for 30 min in a volume of 495 µL at room temperature. The hydrolysis of a solution of 100 µM imipenem for CphA was monitored by following the absorbance variation at 300 nm using a Specord 50 PLUS spectrophotometer (Analytik Jena, Jena, Germany). For L1, the reporter substrate was nitrocefin (100 µM). The enzyme activity was measured by following the absorbance variation at 482 nm. The substrate hydrolysis was done at 30 °C. The activity was tested by measuring the initial rates in three samples without inhibitor that allowed to determine the percentage of residual β-lactamase activity in the presence of inhibitors. […] The Hanes linearization of the Henri–Michaelis equation was used, and Ki was calculated on the basis of the following equation, v = (Vmax.S)/[S + Km(1 + I/Ki)]. […]
# NDM-1 = NDM-1 (Klebsiella pneumoniae, UniProt C7C422); assay: MBL inhibition, reporter substrate method, NDM-1
# Method: (§1) Compounds were prepared in DMSO at a final concentration of 50 mM prior to dilution in the assay buffer. The reaction rate was measured as the variation of absorbance observed upon substrate hydrolysis in a UV-Vis spectrophotometer or microplate reader at a wavelength of 300 nm (imipenem, meropenem), 260 nm (cefotaxime), or 482 nm (nitrocefin) and in the presence of a purified MBL enzyme (such as VIM-1, VIM-2, VIM-4, NDM-1, and IMP-1, at a final concentration ranging from 1 to 70 nM).
# (§2) These enzymes were overproduced in derivatives of E. coli BL21(DE3) carrying a pET-9 a (IMP-1, VIM-1, VIM-2, and VIM-4) or pET-15 b (NDM-1) vector into which the metallo-β-lactamase-encoding open reading frame was cloned. Bacterial strains were grown in the auto-inducing medium, ZYP-5052, supplemented with 50 μg/mL kanamycin for 24 h at 37 °C [38]. IMP-1, VIM-1, VIM-2, and VIM-4 were purified by ion-exchange and gel filtration chromatography using an AKTA Purifier platform (GE Healthcare, Uppsala, Sweden) as previously described. NDM-1 (residues 37-270) was produced as an amino-terminal 6 xHis-tag fusion protein and was purified using affinity chromatography. After growth for 26 h at 25 °C, bacterial cells were harvested by centrifugation (10,000× g, 30 min, 4 °C), resuspended in 10 mM HEPES buffer (pH 7.5) containing 0.15 M NaCl (buffer A) in one-fifth of the original culture volume, and lysed by sonication. Cellular debris was removed by centrifugation (12,000× g, 40 min, 4 °C). The clarified sample was loaded on a HisTrap HP column (bed volume, 5 mL; GE Healthcare), followed by a wash step (25 mL) with buffer A containing 20 mM imidazole. Proteins were eluted using buffer A containing 350 mM imidazole. The resulting protein sample was desalted (HiPrep 26/10 Desalting column, GE Healthcare) using 20 mM triethanolamine (pH 7.2) supplemented with 50 μM ZnSO4 and concentrated using an Amicon Ultra-15 (MW cut-off, 10 kDa; Millipore, Burlington, MA, USA). The concentrated sample was loaded on a Superdex 75 prep grade column (XK16/100 column; bed volume, 140 mL; GE Healthcare) and the proteins eluted with buffer A containing 50 μM ZnSO4. The active fractions were pooled and stored at −20 °C. The purity of the protein preparations was estimated >95% by SDS-PAGE analysis. The authenticity of the enzyme preparations was confirmed by electron spray ionization mass spectrometry, as previously described.
# (§3) The inhibition constants (Ki) were determined on the basis of a model of competitive inhibition by analyzing the dependence of the ratio v0/vi (v0, hydrolysis velocity in the absence of inhibitor; vi, hydrolysis velocity in the presence of inhibitor) as a function of [I] as already described. The slope of the plot of v0/vi vs. [I], which corresponds to Km^S/(Km^S + [S])Ki (where Km^S is the Km value of the reporter substrate and [S] its concentration in the reaction mixture) and allowed the calculation of the Ki value. Alternatively, a Dixon plot analysis was carried out by measuring the initial hydrolysis rates in the presence of variable concentrations of inhibitor and substrate. This allowed Ki values to be determined and supported the hypothesis that the various compounds behaved as competitive inhibitors of the various tested enzymes. The assays were performed in triplicate.
# L1 = target: T2, L1 (Stenotrophomonas maltophilia, UniProt P52700); assay: MBL inhibition, L1 (nitrocefin hydrolysis); conditions: 100 μM inhibitor; read-out: Inhibition of L1 (dash)
# T2 construct: made in house
# Method: Compounds were prepared as 10 mM solutions in DMSO before dilution with appropriate buffers. Buffers were 25 mM Hepes pH 7.5 for CphA or 25 mM Hepes pH 7.5, 50 µM ZnCl2 for L1. The rates in the absence of inhibitor were not modified by addition of 1% DMSO. CphA and L1 enzymes, purified as previously described, were used at concentrations between 0.2 and 0.8 nM, respectively. The enzyme and the inhibitor (100 µM) were pre-incubated for 30 min in a volume of 495 µL at room temperature. The hydrolysis of a solution of 100 µM imipenem for CphA was monitored by following the absorbance variation at 300 nm using a Specord 50 PLUS spectrophotometer (Analytik Jena, Jena, Germany). For L1, the reporter substrate was nitrocefin (100 µM). The enzyme activity was measured by following the absorbance variation at 482 nm. The substrate hydrolysis was done at 30 °C. The activity was tested by measuring the initial rates in three samples without inhibitor that allowed to determine the percentage of residual β-lactamase activity in the presence of inhibitors. If the residual activity in the presence of 100 µM inhibitor was <30%, the initial rate conditions were used to study the inhibition in the presence of increasing concentrations of compounds (from 1 to 100 µM) and to determine the competitive inhibition constant Ki. The Hanes linearization of the Henri–Michaelis equation was used, and Ki was calculated on the basis of the following equation, v = (Vmax.S)/[S + Km(1 + I/Ki)]. The assays were performed in triplicates.
# VIM-4 = target: T3, VIM-4 (Pseudomonas aeruginosa, UniProt A0A0F7KYQ8, S205R); assay: MBL inhibition, reporter substrate method, VIM-4; conditions: read-out: Inhibition of VIM-4 (dash)
# T3 construct: made in house; host or cells: E. coli BL21(DE3) derivative, pET-9a
# Method: as §1, §2, §3
# IMP-1 = target: T4, IMP-1 (Serratia marcescens, UniProt P52699); assay: MBL inhibition, reporter substrate method, IMP-1; conditions: read-out: Inhibition of IMP-1 (dash in Ki column)
# T4 construct: made in house; host or cells: E. coli BL21(DE3) derivative, pET-9a
# Method: as §1, §2, §3
# Sequence of NDM-1 (C7C422 37-270 limits assumed): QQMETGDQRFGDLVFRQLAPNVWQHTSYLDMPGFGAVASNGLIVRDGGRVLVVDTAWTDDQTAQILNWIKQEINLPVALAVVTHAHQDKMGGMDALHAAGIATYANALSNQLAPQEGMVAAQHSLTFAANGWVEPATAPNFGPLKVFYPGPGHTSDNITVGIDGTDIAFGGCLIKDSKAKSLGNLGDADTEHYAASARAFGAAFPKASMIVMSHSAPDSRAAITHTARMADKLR
# T4 sequence (P52699 19-246 limits assumed): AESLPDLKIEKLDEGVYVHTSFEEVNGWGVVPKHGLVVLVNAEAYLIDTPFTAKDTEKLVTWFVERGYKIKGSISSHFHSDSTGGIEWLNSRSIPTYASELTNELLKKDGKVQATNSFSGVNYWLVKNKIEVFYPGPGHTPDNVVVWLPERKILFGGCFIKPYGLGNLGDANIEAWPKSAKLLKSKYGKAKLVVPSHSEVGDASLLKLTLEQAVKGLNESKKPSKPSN
# T2 sequence (P52700 34-290): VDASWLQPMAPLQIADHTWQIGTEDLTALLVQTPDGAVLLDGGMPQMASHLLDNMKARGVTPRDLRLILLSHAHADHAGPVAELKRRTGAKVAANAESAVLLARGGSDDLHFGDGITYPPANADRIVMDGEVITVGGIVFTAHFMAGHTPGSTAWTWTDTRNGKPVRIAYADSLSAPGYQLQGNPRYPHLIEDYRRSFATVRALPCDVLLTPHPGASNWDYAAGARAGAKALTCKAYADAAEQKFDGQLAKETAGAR
# T1 sequence (P26918 28-254): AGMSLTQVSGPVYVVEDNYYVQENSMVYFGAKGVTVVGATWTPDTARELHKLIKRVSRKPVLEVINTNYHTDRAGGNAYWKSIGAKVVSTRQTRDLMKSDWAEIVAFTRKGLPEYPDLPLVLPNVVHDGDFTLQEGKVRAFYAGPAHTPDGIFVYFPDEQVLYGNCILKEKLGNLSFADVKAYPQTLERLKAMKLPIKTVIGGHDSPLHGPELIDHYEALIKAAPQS
structure (smiles),measurement,setting,value
O=C(O)c1ccccc1CNn1c(-c2ccccc2)n[nH]c1=S [Compound 1],inhibition at 100 µM,CphA,60%
same,Inhibition of NDM-1 (in words),NDM-1,inactive
same,inhibition at 100 µM,NDM-1; read-out: Inhibition of NDM-1 (dash in Ki column),< 40%
same,inhibition at 100 µM,L1,< 30%
same,inhibition at 100 µM,VIM-4,< 30%
same,inhibition at 100 µM,IMP-1,< 40%
